Assay results published in PMC12040169 (PLOS Biology, 2025).

How the values were obtained:
[1] = test system: T1, C. trachomatis L2/434/Bu expressing GFP (CTL2-GFP); assay: microbe, parasite or virus in culture; design: C. trachomatis total inclusion area by high-content imaging, normalised to DMSO; settings: Chlamydia trachomatis, HeLa, 28.5 h; total inclusion area; read-out: % of control remaining
T1 construct: L2/434/Bu GFP intracellular growth in HeLa cells
Summary of the method: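 Read-out combines bulk fluorescence and imaging: GFP tracks chlamydial growth, resorufin tracks host cell viability. Plates were then fixed and Hoechst-stained so inclusions and nuclei could be imaged and counted per well.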

[2] = in vitro; design: Viability of infected HeLa host cells, resazurin conversion, bulk resorufin fluorescence relative to DMSO; settings: human, hela cells; bulk resorufin, mean of 2
[3] = test system: T2, CTL2-GFP (C. trachomatis L2/434/Bu, GFP-expressing); assay: microbe, parasite or virus in culture; design: Intracellular C. trachomatis growth in HeLa cells, bulk GFP fluorescence relative to DMSO; settings: Chlamydia trachomatis, HeLa, 28.5 h; bulk GFP, mean of 2; read-out: % of control remaining
T2 construct: L2/434/Bu, GFP-expressing
Experimental: MICs were calculated as described above.

[4] = in vitro; settings: human, hela cells, % viability

Structure (SMILES)	activity at 1 µM [1]	activity at 5 µM [1]	activity at 10 µM [1]	viability at 28.5 h, 1 µM [2]	viability at 28.5 h, 5 µM [2]	viability at 28.5 h, 10 µM [2]	activity at 1 µM [3]	activity at 5 µM [3]	activity at 10 µM [3]	viability at 28.5 h, 10 µM [4]
Cc1cc(C(=O)Nc2cccc(S(=O)(=O)N3CCOCC3)c2)sc1-c1ccccc1 [CBK268185]	107%	82.1%	51.4%	106%	96.9%	98.5%	102%	88.9%	77.7%	102%
COc1cc2c(cc1CNC(=O)c1cn(CCN)nn1)CCC2 [CBK306886]	176%	112%	45.1%	97.3%	96.7%	92.4%	167%	109%	35.5%	84.7%
COc1ccc(C(C)C)cc1-c1cn2ccnc2c(N2CCN(c3ccncc3)CC2)n1 [CBK066217]	96.6%	75.5%	31.5%	102%	104%	101%	91.5%	63.5%	28.4%	116%
CN1CCCN(c2ccc(NS(=O)(=O)c3cccc(F)c3)c3ccccc23)CC1 [CBK200010C]	77.8%	43.7%	26.8%	94.4%	100%	95.1%	108%	66.2%	43.7%	84.9%
CCOc1ccc(OCC)c2c1n(C)c(SC)[n+]2C [CBK005720G]	97.5%	27.2%	3.38%	90.5%	86.2%	83.6%	139%	64.8%	9.96%	92.1%
O=C(Nc1ccc(OC(F)(F)F)cc1)Nc1cc(-c2cccs2)n[nH]1 [CBK020563]	96.5%	24%	10.2%	113%	110%	117%	100%	13.4%	4.7%	82.5%
O=C(CSc1nnc(-c2cccnc2)o1)c1ccccc1 [CBK068446]	67.4%	24%	6.22%	112%	111%	114%	74.8%	13.2%	1.98%	139%
COc1ccc([C@@H]2CN(C)C[C@H]2NC(=O)Nc2ccc(Cl)c(Cl)c2)cc1OC [CBK081111]	105%	25.8%	3.39%	92.3%	92.2%	88.4%	118%	21.4%	8.62%	99.3%
COc1cccc(C(=O)/C=C\Nc2ccc(S(=O)(=O)Nc3onc(C)c3C)cc2)c1 [CBK264206]	68.5%	28.9%	19%	106%	104%	114%	83.7%	25.4%	8.04%	93.4%
Cc1ccc(Cn2c(=N)n(CC(=O)c3cc(C(C)(C)C)c(O)c(C(C)(C)C)c3)c3ccccc32)cc1 [CBK262458B]	99.9%	36.5%	52%	92.1%	96.7%	101%	127%	56.5%	91.9%	82.6%
COc1cc(N)c2ncccc2c1 [CBK011972C]	85%	10.9%	1.09%	101%	81.1%	80%	90.6%	23.4%	7.94%	77.7%
O=C(NCCc1c[nH]c2ccc(Cl)cc12)c1c(F)ccc(Cl)c1F [CBK159756]	92.7%	39.2%	2.12%	98.5%	96.7%	94.6%	103%	35.2%	3.33%	93%
CC(=O)NC[C@H]1CN(c2ccc(-c3nnc([C@@H](C)N)s3)c(F)c2)C(=O)O1 [CBK017966]	84.6%	5.78%	2.78%	92.5%	87.1%	89.3%	90.2%	10%	3.77%	93.2%
CN(C)c1ncc(-c2cccc(Cl)c2)c(C2CCCN2C(=O)CC2CCCC2)n1 (centres unmarked) [CBK286253]	105%	82.7%	44.1%	97.3%	106%	110%	135%	91%	43.9%	120%
O=C(Nc1cccc2c(NC(=O)N3CCCCC3)cccc12)N1CCCCC1 [CBK010775]	97.8%	43.6%	23.8%	89.2%	88.8%	84.5%	130%	67.1%	38.3%	109%
COCC(=O)N[C@H]1C[C@H]2C(=O)Nc3ccc(/C=C/c4ccccc4)cc3C(=O)N2C1 [CBK289366]	105%	11.7%	1.71%	93.1%	96.4%	98.1%	87.5%	12%	2.8%	90.2%
O=c1c2cnc3ccnn3c2ccn1C1CCCC1 [CBK288074]	65.5%	60.4%	4.02%	103%	106%	109%	109%	72.3%	2.35%	107%
